This is an account of results in patent US20070275961A1, “Triazolo ' 1, 5-A ! Pyrimidines and Their Use in Medicine” (VERNALIS (CAMBRIDGE) LIMITED., priority 2003, published 2007).

Type in all cases: biochemical
The target of assay [1] is CDK2 enzyme, complexed with cyclin A (Homo sapiens, UniProt P24941). As to the kind of experiment: CDK2 cyclin dependent kinase assay, phosphorylation of synthetic peptide […] (33P-ATP filtration). The following applies: 0.1 mM ATP. The method, then: (§1) The assay mixture containing the inhibitor and CDK2 enzyme, complexed with cyclin A (0.4 U/ml) was mixed together in a microtiter plate in a final volume of 50 μl and incubated for 40 min at 30° C. The assay mixture contained 0.1 mM unlabeled ATP, 0.01 μCi/μl ^33P-γ-ATP, 0.03 mM peptide, 0.1 mg/ml BSA, 7.5 mM magnesium acetate, 50 mM HEPES-NaOH, pH 7.5. The reaction was stopped by adding 50 μl of 50 mM phosphoric acid. 90 μl of the mixture were transferred to a pre-wetted 96-well Multiscreen MAPHNOB filtration plate (Millipore) and filtered on a vacuum manifold. The filter plate was washed with three successive additions of 200 μl 50 mM phosphoric acid and then with 100 μl methanol. The filtration plate was dried for 10 min at 65° C., scintillant added and phosphorylated peptide quantified in a scintillation counter (Trilux, PerkinElmer).
HEPES is N-[2-hydroxyethyl]piperazine-N′-[2-ethanesulfonic acid]. BSA is bovine serum albumin.

For the next assay, the target named is T1, PDK1 enzyme (Homo sapiens, UniProt O15530).
T1 sequence (O15530 1-556): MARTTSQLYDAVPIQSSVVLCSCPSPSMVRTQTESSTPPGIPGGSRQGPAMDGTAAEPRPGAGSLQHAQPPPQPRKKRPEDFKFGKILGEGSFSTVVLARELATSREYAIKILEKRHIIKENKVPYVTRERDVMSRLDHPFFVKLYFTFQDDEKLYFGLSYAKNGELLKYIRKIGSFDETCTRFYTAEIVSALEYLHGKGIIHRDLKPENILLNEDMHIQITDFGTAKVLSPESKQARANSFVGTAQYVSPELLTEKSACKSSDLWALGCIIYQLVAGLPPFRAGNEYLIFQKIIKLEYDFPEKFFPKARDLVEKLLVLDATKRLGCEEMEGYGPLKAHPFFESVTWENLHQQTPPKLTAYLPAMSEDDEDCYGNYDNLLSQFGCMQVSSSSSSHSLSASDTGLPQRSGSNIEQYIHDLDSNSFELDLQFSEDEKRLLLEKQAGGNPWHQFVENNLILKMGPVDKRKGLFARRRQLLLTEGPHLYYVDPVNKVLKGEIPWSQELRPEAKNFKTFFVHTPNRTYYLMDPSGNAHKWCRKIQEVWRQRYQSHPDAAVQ
The experiment in a line: PDK1 3'-phosphoinositide-dependent kinase assay, phosphorylation of synthetic peptide (33P-ATP filtration). The following applies: 0.01 mM ATP, read-out: PDK1 IC50. The protocol:
as §1, with “and PDK1 enzyme” for “and CDK2 enzyme, complexed with cyclin A (0.4 U/ml)”, “for 60” for “for 40”, “contained 0.01” for “contained 0.1”, “^33P-γ-ATP, 0.075” for “^33P-γ-ATP, 0.03”, “acetate, 0.05 M Tris.HCl,” for “acetate, 50 mM HEPES-NaOH,”, “pH 7.5, 0.5% 2-mercaptoethanol.” for “pH 7.5.”

Another assay addresses T2, Chk1 (Homo sapiens, UniProt O14757).
T2 sequence (O14757 1-476): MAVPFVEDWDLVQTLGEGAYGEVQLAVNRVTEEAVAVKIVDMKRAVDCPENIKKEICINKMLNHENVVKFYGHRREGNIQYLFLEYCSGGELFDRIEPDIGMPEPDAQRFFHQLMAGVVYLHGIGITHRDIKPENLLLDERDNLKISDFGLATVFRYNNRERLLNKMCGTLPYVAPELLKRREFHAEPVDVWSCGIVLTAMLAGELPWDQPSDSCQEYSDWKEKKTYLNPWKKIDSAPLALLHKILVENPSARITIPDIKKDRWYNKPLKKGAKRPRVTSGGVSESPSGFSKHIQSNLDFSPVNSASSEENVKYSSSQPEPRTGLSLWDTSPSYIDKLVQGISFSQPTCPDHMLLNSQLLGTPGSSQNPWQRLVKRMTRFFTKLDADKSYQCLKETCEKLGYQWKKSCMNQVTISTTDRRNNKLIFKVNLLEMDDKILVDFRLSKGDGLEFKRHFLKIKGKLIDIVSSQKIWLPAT
As to the kind of experiment: Chk1 kinase assay, phosphorylation of Chktide (33P-ATP filtration). The following applies: 0.01 mM ATP, read-out: Chk1 IC50. The protocol: Assays for the Chk1 kinase activity were carried out by monitoring the phosphorylation of a synthetic peptide Chktide with the amino acid sequence, […]. The assay mixture containing the inhibitor and Chk1 enzyme was mixed together in a microtiter plate in a final volume of 50 μl and incubated for 40 minutes at 30° C.
The assay mixture contained 0.01 mM unlabeled ATP, 0.5 μCi ^33P-γ-ATP, 30 μM Chktide, 0.1 mg/ml BSA, 50 mM Hepes-NaOH pH 7.5 and 11 nM GST-Chk1 enzyme. The reaction was stopped by adding 50 μl of 50 mM phosphoric acid. 90 μl of the mixture was transferred to a pre-wetted 96-well Multiscreen MAPHNOB filtration plate (Millipore) and filtered on a vacuum manifold. The filter plate was washed with three successive additions of 200 μl 50 mM phosphoric acid and then with 100 μl methanol. The filtration plate was dried for 10 min at 65° C., scintillant added and phosphorylated peptide quantified in a scintillation counter (Trilux, PerkinElmer).

Where two headings read alike, the source gives them in different places.

In the case of `CC(=O)Nc1cccc(Nc2cc(-c3cccc(F)c3)n3ncnc3n2)c1` [Example 131], the results for the IC50 (in assay [1] (Table 3); on PDK1 enzyme (Table 3); at Chk1 (Table 3)) were more than 200 µM, 69.4 µM and 26.3 µM, respectively.
With `CN(C)S(=O)(=O)c1ccc(Nc2cc(N[C@H]3CC[C@H](N)CC3)nc3ncnn23)cc1` [Example 83], the figures for the IC50 (in assay [1] (Table 2); at PDK1 enzyme (Table 2); on Chk1 (Table 2)) were 0.27 µM, 43.3 µM and 93.4 µM, respectively.
With `Cc1cccc(-c2cc(Nc3ccc(C#N)cc3)n3ncnc3n2)c1` [Example 29], the IC50 was 57.5 µM in assay [1] (Table 1), more than 200 µM at PDK1 enzyme (Table 1) and more than 200 µM on Chk1 (Table 1).
`C[Si](C)(C)CCOCn1ncc2ccc(Nc3cc(Cl)nc4ncnn34)cc21` [Example 61]: the IC50 (in assay [1] (Table 2); at PDK1 enzyme (Table 2); on Chk1 (Table 2)) was more than 200 µM throughout.
Consider `CCN(CC)CCNC(=O)c1ccc(Nc2cc(Cc3ccccc3OC)n3ncnc3n2)cc1` [Example 125], for which the figures for the IC50 (in assay [1] (Table 3); at PDK1 enzyme (Table 3); on Chk1 (Table 3)) were more than 200 µM, more than 200 µM and 37.4 µM, respectively.
Consider `NC(=O)c1sccc1Nc1cc(Cl)nc2ncnn12` [Example 47], for which the IC50 (in assay [1] (Table 1); at PDK1 enzyme (Table 1); on Chk1 (Table 1)) was more than 200 µM in each case.
As for `O=S(=O)(c1ccc(Nc2cc(Cl)nc3ncnn23)cc1)N1CCC(O)CC1` [Example 7], the IC50 in assay [1] (Table 1) is 22.7 µM; at PDK1 enzyme (Table 1), more than 200 µM; on Chk1 (Table 1), more than 200 µM.
On to `O=C(O)c1ccc(Nc2cc(-c3cccc(F)c3)n3ncnc3n2)cc1` [Example 132], for which the results for the IC50 (in assay [1] (Table 3); on PDK1 enzyme (Table 3); at Chk1 (Table 3)) were more than 200 µM, 36.2 µM and more than 200 µM, respectively.
With `Cc1cccc(-c2cc(Nc3ccc(S(N)(=O)=O)cc3)n3ncnc3n2)c1` [Example 3, 7-(4-Aminosulfonylphenylamino)-5-(3-methylphenyl)triazolo[1,5-a]pyrimidine], the IC50 is 1.82 µM in assay [1] (Table 1), more than 200 µM on PDK1 enzyme (Table 1) and more than 200 µM at Chk1 (Table 1).
For the compound `NS(=O)(=O)c1ccc(Nc2ccnc3ncnn23)cc1` [Example 30], the values for the IC50 (in assay [1] (Table 1); on PDK1 enzyme (Table 1); on Chk1 (Table 1)) were 33 µM, more than 200 µM and 72 µM, respectively.
For `CCOC(=O)Cc1ccc(Nc2cc(-c3cccc(F)c3)n3ncnc3n2)cc1` [Example 133], the IC50 in assay [1] (Table 3) is more than 200 µM; at PDK1 enzyme (Table 3), 2.25 µM; at Chk1 (Table 3) it was 8.84 µM.
Turning to `Cc1cc(Nc2ccc(S(C)(=O)=O)cc2)n2ncnc2n1` [Example 77], the IC50 was 124 µM in assay [1] (Table 2), more than 200 µM on PDK1 enzyme (Table 2) and more than 200 µM on Chk1 (Table 2).
For the compound `CS(=O)(=O)c1ccc(Nc2cc(N[C@H]3CC[C@H](N)CC3)nc3ncnn23)cc1` [Example 84], the results for the IC50 (in assay [1] (Table 2); on PDK1 enzyme (Table 2); on Chk1 (Table 2)) were 0.25 µM, 107 µM and more than 200 µM, respectively.
The like results for `CC(C)(C)CNc1cc(Nc2ccc(S(C)(=O)=O)cc2)n2ncnc2n1` [Example 94] were, in that order, 1.53 µM, more than 200 µM and more than 200 µM.
Regarding `NS(=O)(=O)c1ccc(CNc2cc(OC3CCCCC3)nc3ncnn23)cc1` [Example 15], the results for the IC50 (in assay [1] (Table 1); on PDK1 enzyme (Table 1); at Chk1 (Table 1)) were 11.3 µM, more than 200 µM and more than 200 µM, respectively.
Take `NS(=O)(=O)c1ccc(Nc2cc(NC3CCCC3)nc3ncnn23)cc1` [Example 11]: the IC50 in assay [1] (Table 1) was 0.55 µM; on PDK1 enzyme (Table 1), more than 200 µM; on Chk1 (Table 1), more than 200 µM.
On to `NC(=O)c1ccc(Nc2cc(-c3cccc(OCc4ccccc4)c3)n3ncnc3n2)cc1` [Example 149], for which the IC50 in assay [1] (Table 4) was determined as 8.41 µM; on PDK1 enzyme (Table 4) it was 2.26 µM; on Chk1 (Table 4), 4.12 µM.
As to `Cc1cccc(-c2cc(Nc3ccc(N(C)C)cc3)nc3ncnn23)c1` [Example 108], the IC50 in assay [1] (Table 3) was more than 200 µM; on PDK1 enzyme (Table 3), 66.8 µM; at Chk1 (Table 3) it was 36.8 µM.
Consider `CCN(CC)CCNC(=O)c1ccc(Nc2cc(-c3ccc4c(c3)OCO4)n3ncnc3n2)cc1` [Example 140], for which the IC50 in assay [1] (Table 3) was more than 200 µM; at PDK1 enzyme (Table 3), 1.8 µM; at Chk1 (Table 3), 1 µM.

What is called IC50 is the concentration that gives 50% inhibition.
